Patent US20240315246A1, “METHOD OF USING SIMAZINE FOR CONTROLLING ANNUAL BLUEGRASS IN COOL SEASON-TURFGRASSES” (priority 2023, published 2024)

What was measured:
ryegrass [1] = test system: ryegrass
Text: For example, when converting from overseeded ryegrass turf to perennial bermudagrass in the spring season, sublethal doses of Sapphire herbicide (or other ryegrass-removal herbicides) are applied to cause the ryegrass to slowly fade away. […] In other aspects, a method of enhancing color and quality of a turf including the cool-season turfgrass species comprises co-administering Simazine with Penoxsulam or other ryegrass-removal herbicides to the turf comprising the cool-season turfgrass species. In such implementations, a sub-lethal dosage application of Simazine in relation to the desirable cool-season turfgrass species is co-administered with Penoxsulam or other ryegrass-removal herbicides.

bermudagrass = experiment: Tolerance of bermudagrass turf; type: in vivo; settings: single application 0.5 lb AI/A
Text: (§1) Bermudagrass and seashore Paspalum (Paspalum vaginatum) are both warm-season turfgrasses. However, when one species is desired, often the other species is found to contaminate the desired species. When seashore Paspalum contaminates bermudagrass, the result is undesirable. It was discovered that Simazine may be used to selectively remove the seashore Paspalum because bermudagrass is much more tolerant of Simazine than is seashore Paspalum.

[2] = test system: annual bluegrass (Poa annua); experiment: Field trial: control of annual bluegrass in ryegrass turf; type: in vivo
Description: Unless noted otherwise, the data and results shown herein are from trials performed in Phoenix, AZ and would be representative of application of the methods described herein in a hot climate. […] The tests were conducted according to standards required by the U.S. Environmental Protection Agency for evaluating herbicides.
FIG. 1A depicts a ryegrass/annual bluegrass turf test area that was subjected to four treatments. Initial treatments were made in December. Treatment area #1 received a low application rate (0.25 lb AI/A) of Simazine followed by a second low rate application one month later. Treatment area #2 received two medium rate (0.5 lb AI/A) applications on the same schedule as treatment area #1. Treatment area #3 received a single medium rate application. Treatment area #4 received no Simazine applications. The test area was evaluated 90 days after the first application as shown in FIG. 1A and the quantification data is presented in FIG. 1B.
FIG. 2B represents a single application at 0.75 lb AI/A using the 90DF formulation. […] FIG. 3A compares single application of application rates of 0.25 lb AI/A, 0.5 lb AI/A, 0.75 lb AI/A, and 1.0 lb AI/A at 86 days after treatment. FIG. 3B quantifies the percentage of annual bluegrass coverage on the test turf at 79 days after treatment.

[3] = test system: annual bluegrass (Poa annua); experiment: Co-administration with ryegrass-weakening herbicides A and B on ryegrass turf infested with Poa annua; type: in vivo; settings: Simazine mixed with herbicide A or B; 60 days after treatment
Text: Herbicides A and B were applied at low dosages to weaken the existing ryegrass turf which was infested with Poa annua. Poa annua is not sensitive to either A or B. As shown in the untreated section, Poa annua would otherwise proliferate during the herbicidal treatment at 60 days after treatment, but co-administration with Simazine prevents Poa annua proliferation during the herbicidal treatment.
Because annual bluegrass is not sensitive to certain herbicides used for weakening existing ryegrass, treatment with such herbicides may not be beneficial in removing the turf as the annual bluegrass would proliferate in the area. However, mixing Simazine with herbicides improves the results of the herbicidal treatments in turf removal. […] Annual bluegrass is not sensitive to either herbicide.

[4] = test system: seashore Paspalum (Paspalum vaginatum); experiment: Selective control of seashore Paspalum in bermudagrass turf; type: in vivo; settings: single application 0.5 lb AI/A
Text: as §1

[5] = test system: annual bluegrass (Poa annua); experiment: Suppression of annual bluegrass flowers and seedheads in ryegrass turf; type: in vivo
Text: The test turfs shown in FIGS. 9A and 9B are ryegrass turfs infested with Poa annua that received two applications of Simazine at a rate of 0.25 lb AI/A per application.
However, applying a sub-lethal dosage of Simazine in relation to annual bluegrass still improves the quality of the turf comprising cool-season turfgrasses. Using applications that are sub-lethal to annual bluegrass (at least in the near term), simazine treatment suppresses the production of annual bluegrass flowers and seedheads rendering the turf more desirable.
The #1 plot in FIG. 8A was treated with Simazine (0.25 lb AI/A). […] The other areas were untreated and the annual bluegrass there produced prolific flowers and seedheads. FIGS. 9A and 9B show multiple applications made to ryegrass turf infested with Poa annua.

[6] = test system: annual bluegrass (Poa annua); experiment: Field trial: control of annual bluegrass in bentgrass turf; type: in vivo
Text: Bentgrass turfgrass species are more sensitive to Simazine application than ryegrass. […] While there was still a large presence of annual bluegrass at 13 days after treatment, the patch of annual bluegrass is visibly ill (FIG. 7A).

ryegrass [7] = experiment: Safety to ryegrass seeded after treatment of bermudagrass turf; type: in vivo; settings: applied four days prior to planting ryegrass; 43 days after seeding
Text: Simazine may also be applied during the transition of a turf from warm-season turfgrass species to cool-season turfgrass species. Simazine is not injurious to desired cool-season turfgrasses when applied prior to planting seed. FIG. 11A show soon-to-be-dormant bermudagrass turf treated with simazine four days prior to planting ryegrass into the turf.

Poa annua = experiment: Field trial: control of Poa annua in turf comprising cool-season turfgrasses, multiple low-rate applications; type: in vivo; settings: multiple applications at rates as low as 0.05 lbs AI/A; no photo documentation
Description: (§2) Unless noted otherwise, the data and results shown herein are from trials performed in Phoenix, AZ and would be representative of application of the methods described herein in a hot climate. However, Simazine is effective in management of annual bluegrass infestation in a turf comprising cool-season turfgrass species in cool, high-altitude climates as well as in hot climates (see FIG. 10). The tests were conducted according to standards required by the U.S. Environmental Protection Agency for evaluating herbicides.
However, multiple applications of lower rates may provide greater safety to the ryegrass than a higher rate single application even though both may effectively control the annual bluegrass (FIGS. 4A-6B). Multiple applications of Simazine at lower rates reduce the risk of overdosing the desirable cool-season turfgrass due to application overlaps, which occur often during turf treatments.

annual bluegrass = experiment: Test turf in a cool high-altitude climate; type: in vivo, Poa annua
Description: FIG. 10 is a photograph of a test turf in a cool high-altitude climate.
as §2

[8] = test system: cool-season turfgrass species; experiment: Margin of safety on desired cool-season turfgrass species; settings: in vivo
[9] = ryegrass turf, two applications of 0.25 lb AI/A (FIGS. 9A, 9B)

SMILES: COc1cnc(OC)n2nc(NS(=O)(=O)c3c(OCC(F)F)cccc3C(F)(F)F)nc12 [Sapphire, 2-(2,2-difluoroethoxy)-N-(5,8-dimethoxy-[1,2,4]triazolo[1,5-c]pyrimidin-2-yl)-6-(trifluoromethyl)benzenesulfonamide]
- colour and quality of ryegrass during conversion to bermudagrass (ryegrass [1]; sublethal doses of ryegrass-removal herbicide alone): degrades the color and quality of the ryegrass

SMILES: CCNc1nc(Cl)nc(NCC)n1 [Simazine, 6-chloro-2-N,4-N-diethyl-1,3,5-triazine-2,4-diamine]
- damage to bermudagrass (bermudagrass): not damaging bermudagrass
- selective control of annual bluegrass ([2]; another site, single application 1.0 lb AI/A, 4 L formulation): selective control of annual bluegrass
- annual bluegrass coverage on the test turf ([2]; single application 0.25 lb AI/A, 79 days after treatment, untreated over 80%): 50%
- visual presence of annual bluegrass within the treated turf ([2]; single application 1.0 lb AI/A, 79 days after treatment): effectively removed visual presence of any annual bluegrass
- annual bluegrass proliferation during herbicidal treatment [3]: without allowing annual bluegrass to proliferate
- control of seashore Paspalum [4]: eradicate seashore Paspalum
- flowering and seedhead production in surviving annual bluegrass ([5]; plot #1 FIG. 8A, 0.25 lb AI/A): suppressed
- kill of annual bluegrass ([5]; plot #1 FIG. 8A, 0.25 lb AI/A): only a portion of the annual bluegrass was killed
- formation of flowers and seedheads [5, 9]: greatly suppressed
- kill of Poa annua [5, 9]: did not kill the Poa annua
- condition of annual bluegrass patch ([6]; 0.5 lb AI/A, 13 days after treatment): visibly ill
- coverage of the test area with annual bluegrass ([6]; 0.5 lb AI/A, 38 days after treatment): significantly reduced
- control of annual bluegrass infestation ([6]; application at 0.5 lb AI/A): effectively controlled annual bluegrass infestation
- effect on young ryegrass (ryegrass [7]): did not affect the young ryegrass
- control of Poa annua (Poa annua): successfully controlled Poa annua
- colour of treated ryegrass versus untreated (ryegrass [1]; single application, 1.0 and 0.75 lb AI/A (FIGS. 2A, 2B)): deeper green color
- colour and quality of ryegrass turf during conversion to bermudagrass (ryegrass [1]; sub-lethal Simazine about 0.25 AI/A included with Sapphire treatment): enhances the color and quality of the ryegrass turf
- turf colour compared to untreated turf (annual bluegrass): darker green color
- control of annual bluegrass infestation (annual bluegrass; effective dose specific to the climate): control of annual bluegrass infestation

SMILES: CCNc1nc(Cl)nc(NC(C)C)n1 [atrazine]
- margin of safety on desired cool-season turfgrass species, compared with Simazine [8]: lesser margin of safety
